Data on 3 molecules can be found in patent US6054315A, “Method for making activated neutrophils recognizable to macrophages” (The Board of Regents of the University of Oklahoma, priority 1997, dated 2000).

The term Kd denotes the free concentration of one partner at which half of the binding sites on the other are occupied at equilibrium, for simple one-to-one binding. High values mean a looser complex, low ones a tighter complex.

Assay [1] addresses T1, recombinant galectin-1 (Cys at the 2nd residue converted to Ser) (Cricetulus griseus, UniProt P48538, C3S).
T1 construct: made in house; host or cells: E. coli (for the recombinant CHO galectin-1)
Kind of assay: Galectin-1 agglutination of activated neutrophils and desialylated HL-60 cells, inhibition by sugars. The format is cell-based, hamster. On the procedure: In all cases cell binding of galectin-1 to cells was inhibited by 10 mM lactose, a known inhibitor of galectin-1 (FIG. 1), but not by 10 mM maltose, an isomeric, non-inhibitory analog (data not shown). We noted that both activated neutrophils and desialylated HL-60 cells are strongly agglutinated by galectin-1, whereas resting neutrophils and HL-60 cells are not appreciably agglutinated, which further underscores the profound differences in surface phenotypes between resting and activated neutrophils.
(§1) Annexin V is a protein that recognizes phosphatidyl serine (PS) and is a convenient marker for apoptosis of neutrophils and other cells (S. J. Martin, C. P. Reutelingsperger, A. J. McGahon, J. A. Rader, R. C. van Schie, D. M. LaFace and D. R. Green D R, J. Exp. Med., 182:1545, 1995; C. H. Homburg, M. de Haas, A. E. von dem Borne, A. J. Verhoeven, C. P. Reutelingsperger and D. Roos, Blood, 85:532, 1995; I. Vermes, C. Haanen, H. Steffens-Nakken, and C. Reutelingsperger, J. Immunol. Methods, 184:39, 1995; Z. Darzynkiewicz, G. Juan, X. Li, W. Gorczyca, T. Murakami, and F. Traganos, Cytometry 27:1, 1997). […] Within 90 minutes following treatment with 10 μM galectin-1, 36% of the activated neutrophils undergo apoptosis, as determined by their staining with annexin V (FIG. 2A). […]

Assay [2] concerns the target T1, recombinant galectin-1 (Cys at the 2nd residue converted to Ser). Kind of assay: Galectin-1-induced apoptosis of activated neutrophils and desialylated HL-60 cells (annexin V), inhibition by sugars. The settings on record: galectin-1 10 μM; lactose 10 mM in the method. The format is cell-based, hamster. On the procedure: Resting or activated neutrophils (3×10^6 cells) were treated with galectin-1 (10 μM) in 0.5 ml of HBSS (lacking Ca^2+ /Mg^2+ and containing 0.5% human albumin) for 90 minutes at 37° C. in the presence or absence of 10 mM lactose. HL-60 cells and desialylated HL-60 cells (3×10^6 cells/0.5 ml) were treated with galectin-1 (10 μM) for 20 hours at 37° C. in the presence or absence of 10 mM lactose. At the end of the incubations all cells were treated with 10 mM lactose in PBS to disaggregate the cells. […]
as §1

The target is the same in assay [3]. Kind of assay: Binding of biotinylated galectin-1 to activated neutrophils and desialylated HL-60 cells (flow cytometry), inhibition by sugars. The settings on record: sugar at 10 mM; galectin-1 10 μg/ml, 30 minutes on ice. It counts as cell-based, hamster. The source says: Isolated neutrophils were activated by treatment with PMA and HL-60 cells were desialylated by treatment with neuraminidase. Heparinized blood was obtained from normal donors. Neutrophils were isolated by dextran sedimentation, hypotonic lysis, and density gradient centrifugation on Histopaque-1077 (Sigma), as described [G. A. Zimmerman, T. M. McIntyre, and S. M. Prescott, J. Clin. Invest., 76:2235, 1985]. Typically, the polymorphonuclear cells were >90% neutrophils by Wright-Giemsa staining and >90% CD16^+ as assessed by flow cytometry. Neutrophils were activated by treatment with phorbol myristate acetate (PMA) (Sigma) (0.5 μM) for 20 minutes at 37° C. in RPMI containing 20% FCS (0.5 ml). HL-60 cells were routinely maintained in RPMI containing 20% FCS. Desialylated HL-60 cells were prepared by treating 3×10^7 cells with Arthrobacter ureafaciens neuraminidase (Sigma) (100 mU) in 500 μl of RPMI containing 20% FCS for 1 hour at 37° C. […] The washed cells were incubated with FITC-streptavidin (1:100 dilution) (Sigma), washed once with PBS, and analyzed by flow cytometry. […] "Unstained" indicates fluorescence of either resting neutrophils or HL-60 cells incubated in the absence of either MAL or galectin-1. "Control" indicates fluorescence of either activated neutrophils or desialylated HL-60 cells incubated with galectin-1 in the presence of 10 mM lactose. […]

In assay [4] the target is T2, hamster galectin-1 mutant C2S-Gal-1 (Cys-2 to Ser) (Cricetulus griseus, UniProt P48538, C3S).
T2 construct: made in house; host or cells: E. coli (for the recombinant CHO galectin-1)
T2 sequence (P48538 whole entry C3S): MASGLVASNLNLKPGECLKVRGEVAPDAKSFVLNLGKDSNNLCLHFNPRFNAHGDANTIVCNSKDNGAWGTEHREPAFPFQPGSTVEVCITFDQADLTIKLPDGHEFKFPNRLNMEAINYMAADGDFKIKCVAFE
Kind of assay: Equilibrium dialysis, binding of N-acetyllactosamine. The settings on record: stated as similar affinity to the mutants. On the procedure: (§2) To investigate whether dimerization of the galectin-1 is required to induce apoptosis, mutated forms of galectin-1 were prepared. Recombinant hamster galectin-1, which is highly homologous in sequence with bovine and human galectin-1 with 100% identity at the N- and C-termini positions was used. The protein was prepared as described in Cho and Cummings, 1995b, J. Biol. Chem., 270:5198-5206, ibid, J. Biolchem, 270:5207, 1995. This protein (monomeric or dimeric) contains a stabilizing mutation in which Cys at the 2nd residue was converted to Ser.
(§3) Specific mutations were created in the N- and C-termini of hamster galectin-1, as indicated in FIG. 3 and as described in further detail in Cho and Cummings, Biochemistry, 35:13081, 1996, which is hereby incorporated by reference herein in its entirety. C2S-Gal-1 contains a single replacement of Cys-2 to Ser. V5D-Gal-1 contains a single mutation of Val-5 to Asp. N-Gal-1 contains disruptions of three hydrophobic amino acids at the N-terminus. We also made another mutant construct, termed N/C-Gal-1, which contained the amino terminal changes of N-Gal-1 in addition to multiple changes in specific hydrophobic amino acids at the C-terminus (data not shown). All mutants, except for C2S-Gal-1, behaved as monomers in size exclusion HPLC and native gel electrophoresis. C2S-Gal-1 was indistinguishable from the native lectin in its ability to undergo monomer-dimer equilibrium and in its carbohydrate-binding affinity. […] However, in equilibrium dialysis N-Gal-1 and V5D-Gal-1 bound N-acetyllactosamine with similar affinity (Kd 90 μM) to that of the C2S-Gal-1 and the native lectin. […] N/C-Gal-1 was non-functional.
(In general: In equilibrium dialysis only unbound substance equilibrates across the membrane.)

For assay [5], the target named is T3, hamster galectin-1 mutant V5D-Gal-1 (Val-5 to Asp) (Cricetulus griseus, UniProt P48538, V6D).
T3 construct: made in house; host or cells: E. coli (for the recombinant CHO galectin-1)
T3 sequence (P48538 whole entry V6D): as the sequence (P48538 whole entry C3S) above, with S3C, V6D counted along it
Described as above. On the procedure:
as §2, §3

The target in assay [6] is T4, hamster galectin-1 mutant N-Gal-1 (monomeric; disruptions of three hydrophobic amino acids at the N-terminus) (Cricetulus griseus, UniProt P48538, A7S/C3S/L5Q/V6D).
T4 construct: made in house; host or cells: E. coli (for the recombinant CHO galectin-1)
T4 sequence (P48538 2-135 C3S/L5Q/V6D/A7S limits assumed): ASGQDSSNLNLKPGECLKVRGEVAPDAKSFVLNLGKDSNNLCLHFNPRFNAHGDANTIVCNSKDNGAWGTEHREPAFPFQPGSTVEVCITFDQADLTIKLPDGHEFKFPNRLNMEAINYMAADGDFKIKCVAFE
The description is as above. On the procedure: as §2, §3

Assay [7] addresses native galectin-1 (native lectin) (Cricetulus griseus, UniProt P48538). The assay is described as above. Further details: species or system hamster. The settings on record: stated as similar affinity to the mutants. On the procedure:
as §2
Specific mutations were created in the N- and C-termini of hamster galectin-1, as indicated in FIG. 3 and as described in further detail in Cho and Cummings, Biochemistry, 35:13081, 1996, which is hereby incorporated by reference herein in its entirety. C2S-Gal-1 contains a single replacement of Cys-2 to Ser. V5D-Gal-1 contains a single mutation of Val-5 to Asp. N-Gal-1 contains disruptions of three hydrophobic amino acids at the N-terminus. We also made another mutant construct, termed N/C-Gal-1, which contained the amino terminal changes of N-Gal-1 in addition to multiple changes in specific hydrophobic amino acids at the C-terminus (data not shown). All mutants, except for C2S-Gal-1, behaved as monomers in size exclusion HPLC and native gel electrophoresis. […]

T1 sequence (P48538 whole entry C3S): as the sequence (P48538 whole entry C3S) above
Chain of native galectin-1 (native lectin) (P48538 2-135): as the sequence (P48538 2-135 C3S/L5Q/V6D/A7S limits assumed) above, with S2C, Q4L, D5V, S6A counted along it

Take `OC[C@H]1O[C@@H](O[C@H]2[C@H](O)[C@@H](O)C(O)O[C@@H]2CO)[C@H](O)[C@@H](O)[C@H]1O` (stereo partly shown) [lactose]: the “inhibition of cell agglutinating activity of galectin-1” value in assay [1] was “inhibited”. Moreover, the “inhibition of apoptosis-inducing activity of galectin-1” value in assay [2] is on record as “inhibited”. Besides, the “inhibition of binding of galectin-1 to cells” value in assay [3] was “inhibited”.

Take `OC[C@H]1O[C@H](O[C@H]2[C@H](O)[C@@H](O)[C@H](O)O[C@@H]2CO)[C@H](O)[C@@H](O)[C@@H]1O` [maltose]: the “inhibition of cell agglutinating activity of galectin-1” value in assay [1] is on record as “not”. Also, in assay [2], the “inhibition of apoptosis-inducing activity of galectin-1” value was “not”. In assay [3], the “inhibition of binding of galectin-1 to cells” value is “not”.

Consider `CC(=O)N[C@H]1C(O)O[C@H](CO)[C@@H](O[C@@H]2O[C@H](CO)[C@H](O)[C@H](O)[C@H]2O)[C@@H]1O` (stereo partly shown) [N-acetyllactosamine], for which the dissociation constant (Kd) in assay [4] was around 90 µM; in assay [5] it was 90 µM; in assay [6], 90 µM; in assay [7], around 90 µM.
